Where two headings read alike, the source gives them in different places.
System: IL4, IL13, IL31, CCL17, CCL26, CCL2 gene expression in Th2 stimulated human skin
Test: Th2 stimulated human skin explants, RT-qPCR of biomarkers
Type: cell-based
Conditions: for inhibition at 0.01 µM / inhibition at 0.04 µM / inhibition at 0.16 µM / inhibition at 0.63 µM / inhibition at 2.5 µM / inhibition at 10 µM: Homo sapiens, calculated to Th2 stimulated control; for inhibition at 2.5 µM: 2.50 μM
Text: Human skin biopsy tissue was stimulated to induce a Th17 immuno-phenotype using a method derived from Feghali-Bostwick et al. Induction of a Th17 phenotype in human skin—a mimic of dermal inflammatory diseases, Methods and Protocols, 2, 45 (2019). The pharmacodynamic assay described therein involves a similar paradigm to elicit a Th2 response and is used to evaluate the therapeutic potential of the active compounds (e.g., BETi1; and
Freshly excised healthy human skin tissue from abdominoplasties is defatted, cleaned and sectioned into 7 mm biopsies. The biopsies are placed in Transwell® inserts with the epidermis apical and exposed to air and the dermis submerged in media in the basal chamber. The biopsies are pre-treated overnight at 37° C., 5% CO2 with different compounds and controls added to the media in the basal chamber.
The next day, contents of the basal chamber is replaced with fresh media containing the test compound (listed below) and a stimulation cocktail for either Th2 inflammation (proprietary of service provider cocktail) or Th17 inflammation (mix of antibodies against CD3, CD28, IL-4, IFNγ and recombinant IL-1β, IL-6, IL-21, TGF-β). The biopsies are incubated at 37° C., 5% CO2 for a further 24 hrs.
A list of all the treatments is provided below: • 1. Untreated control (for both stimulations) • 2. Th2 stimulated control • 3. Th17 stimulated control • 4. Th2+BETia at 0.01, 0.04, 0.16, 0.63, 2.50, and 10 μM • 5. Th2+BETi1 at 0.01, 0.04, 0.16, 0.63, 2.50, and 10 μM • 6. Th2+Ruxolitinib at 0.01, 0.04, 0.16, 0.63, 2.50, and 10 μM • 7. Th2+betamethasone valerate 210 μM (equivalent to 0.01%) • 8. Th17+BETia at 10 μM • 9. Th17+BETi1 at 10 μM • 10. Th17+Ruxolitinib at 10 μM • 11. Th17+betamethasone valerate 210 μM (equivalent to 0.01%)
After harvesting, the biopsies are cut in half, and one half is homogenized and used for RNA extraction by standard methods and inflammatory pathways is assessed by RT-qPCR. The ability of BETi1 or BETia to inhibit the activity of up to six biomarkers per stimulation is reported as percent activity calculated to stimulated control and fold change in gene expression calculated to untreated control with respect to Th2 (IL4, IL13, IL31, CCL17, CCL26, CCL2) and Th17 (CXCL10, IL17α, IL22, IL36γ, CCL20, SerpinB4). Statistical analysis is performed on data sets from all 3 donors combined and compares the percent inhibition of each biomarker by each treatment calculated to its respective vehicle.
qPCR values were calculated using the relative quantification approach outlined by Livak, et al (2001) (Section 9, Reference 2). The Ct values (threshold cycle) defined as the fractional cycle number at which the amount of amplified target reaches a fixed threshold, were normalised to the Ct value of an internal biomarker or ‘housekeeping gene’ (GAPDH). The higher limit of detection was set at a Ct value of 40, and any target having not reached Ct by 40 cycles was set to this value. The delta Ct values (dt(Ct)) refers to the Ct of the gene of interest minus the Ct of the internal biomarker. The ddt(Ct) is the dt(Ct) value of the gene minus the average dt(Ct) value of the untreated samples. The ddt(Ct) is converted to power by the equation; =power(2,dt(Ct)). Fold change was calculated as ratio of the power of the gene of interest divided by the average power of the untreated samples. This normalizes the untreated samplers to a value of 1. For the comparison of multiple skin donors, the stimulated samples were normalized to 100% maximum activity (such to normalize variability between different skin donors). Percent activity was calculated as the percent increase or decrease in stimulation compared to the stimulated samples set at 100% maximum activity. Percent change was calculated as: Inhibition=(100−(avg % activity/stimulated)*100). Statistical analysis was performed using One-way ANOVA with Dunnett's Multiple Comparisons (non parametric). […]

[1] = Th2 stimulated human skin explants, 10 μM, compared to untreated skin

Structure (SMILES): Cn1cc(-c2cccc(O)c2Oc2ccccc2)c2cc[nH]c2c1=O [BETi1]
- inhibition at 0.01 µM (read-out: % Inhibition CCL17): 22.4%
- inhibition at 0.01 µM (read-out: % Inhibition CCL26): 31.3%
- inhibition at 0.01 µM (read-out: % Inhibition IL31): < 0%
- inhibition at 0.01 µM (read-out: % inhibition CCL2): < 0%
- inhibition at 0.01 µM (read-out: % inhibition IL4): 20.4%
- inhibition at 0.01 µM (read-out: % inhibition IL13): 22.4%
- inhibition at 0.04 µM (read-out: % Inhibition CCL17): < 0%
- inhibition at 0.04 µM (read-out: % Inhibition CCL26): 10.9%
- inhibition at 0.04 µM (read-out: % Inhibition IL31): < 0%
- inhibition at 0.04 µM (read-out: % inhibition CCL2): < 0%
- inhibition at 0.04 µM (read-out: % inhibition IL4): 51.8%
- inhibition at 0.04 µM (read-out: % inhibition IL13): 3%
- inhibition at 0.16 µM (read-out: % Inhibition CCL26): 15.2%
- inhibition at 0.16 µM (read-out: % Inhibition IL31): ~74%
- inhibition at 0.16 µM (read-out: % inhibition CCL2): 40%
- inhibition at 0.16 µM (read-out: % inhibition IL4): 83.4%
- inhibition at 0.16 µM (read-out: % inhibition IL13): 76.3%
- inhibition at 0.63 µM (read-out: % Inhibition CCL17): 48%
- inhibition at 0.63 µM (read-out: % Inhibition CCL26): < 0%
- inhibition at 0.63 µM (read-out: % inhibition CCL2): 34.9%
- inhibition at 0.63 µM (read-out: % inhibition IL4): ~80%
- inhibition at 0.63 µM (read-out: % inhibition IL13): ~84%
- inhibition at 2.5 µM (read-out: % Inhibition CCL17): 62.3%
- inhibition at 2.5 µM (read-out: % Inhibition CCL26): < 0%
- inhibition at 2.5 µM (read-out: % inhibition CCL2): 76.5%
- inhibition at 2.5 µM (read-out: % inhibition IL4): 82%
- inhibition at 2.5 µM (read-out: % inhibition IL13): 90.2%
- inhibition at 10 µM (10 μM, read-out: % Inhibition CCL17): ~62%
- inhibition at 10 µM (10 μM, read-out: % Inhibition CCL26): < 0%
- inhibition at 10 µM (10 μM, read-out: % Inhibition IL31): 95.4%
- inhibition at 10 µM (10 μM, read-out: % inhibition IL4): 74.9%
- inhibition at 10 µM (10 μM, read-out: % inhibition IL13): 93.3%
- highest percent inhibition of IL4, IL13, IL31, and CCL2 gene expression (Th2-mediated stimulation, compared to stimulated and untreated): 76-85%
- inhibition of interleukin IL-4 expression [1]: 75%
- inhibition of interleukin IL-13 expression [1]: 93%
- inhibition of interleukin IL-31 expression [1]: 95%
- reduction in CXCL10, IL-17a, IL-36γ, IL-4, IL-13 or IL-31 levels (human skin induced to exhibit Th2 or Th17 phenotype): > 75%

— patent publication US20250339409A1, “USES OF PAN BET INHIBITORS” (VYNE THERAPEUTICS INC., priority 2021, published 2025)
